Test results reported in ChEMBL document CHEMBL5137049, “Discovery of a Novel Small-Molecule Inhibitor Disrupting TRBP-Dicer Interaction against Hepatocellular Carcinoma via the Modulation of microRNA Biogenesis” (J Med Chem, 2022).
pEC50: −log10 of the molar value. The source made the active and inactive calls. The rule behind the calls is not given here.

Columns and labels:
HCCLM3 [1] = assay: Downregulation of miR-18a expression in human HCCLM3 cells at 10 uM by qRT-PCR analysis; type: functional, cell-based
[2] = Toxicity in SCID mouse xenografted with human MHCC97-L cells assessed as change in body weight at 10 to 50 mg/kg, ip administered every 2 days for 4 weeks and measured on alternate days; type: organism-based; settings: in vivo, 672 h, dose 10-50 mg/kg
HeLa [3] = assay: Downregulation of miR-30A expression in human HeLa cells at 10 uM incubated for 6 hrs by qRT-PCR analysis; type: functional
[4] = Inhibition of microRNA in human HeLa cells transfected with pCI-neo-luciferase-miR-21 plasmid assessed as increase in luciferase activity by luciferase reporter assay; type: cell-based
HCCLM3 [5] = assay: Antiproliferative activity against human HCCLM3 cells assessed as inhibition of cell growth incubated for 72 hrs by CellTiter-luminescence assay; type: functional, cell-based
SK-HEP1 [6] = assay: Upregulation of E-cadherin expression level in TRBP siRNA transfected human SK-HEP1 cells incubated for 48 hrs by Western blotting analysis; type: functional, cell-based
SK-HEP1 [7] = assay: Downregulation of ZEB2 expression in human SK-HEP1 cells at 1 to 25 uM by Western blotting analysis; type: functional, cell-based; settings: dose 1-25 µM
SK-HEP1 [8] = assay: Upregulation of E-cadherin expression in human SK-HEP1 cells at 1 to 25 uM by Western blotting analysis; type: functional, cell-based; settings: dose 1-25 µM
MHCC97-L [9] = assay: Inhibition of cell invasion in human MHCC97-L cells at 1 to 25 uM measured after 24 hrs by crystal violet staining based transwell assay; type: functional; settings: dose 1-25 µM
MHCC97-L [10] = assay: Upregulation of miR-125 expression in human MHCC97-L cells at 10 uM by qRT-PCR analysis; type: functional, cell-based
SK-HEP1 [11] = assay: Downregulation of mature miR-21 expression in human SK-HEP1 cells at 10 uM incubated for 24 hrs; type: functional, cell-based
[12] = Toxicity in SCID mouse xenografted with human MHCC97-L cells assessed as effect on heart at 10 to 50 mg/kg, ip administered every 2 days for 4 weeks by hematoxyin-eosin staining based analysis; type: organism-based; settings: in vivo, 672 h, dose 10-50 mg/kg
SK-HEP1 [13] = assay: Downregulation of miR-135 expression in human SK-HEP1 cells at 10 uM by qRT-PCR analysis; type: functional, cell-based
HepG2 [14] = assay: Downregulation of miR-21 expression in human HepG2 cells at 10 uM incubated for 6 hrs by qRT-PCR analysis; type: functional
SK-HEP1 [15] = assay: Downregulation of PTEN protein expression in pCMV3-TRBP transfected human SK-HEP1 cells at 10 uM incubated for 24 hrs by Western blotting analysis; type: functional, cell-based
HCCLM3 [16] = assay: Inhibition of cell invasion in human HCLLM3 cells at 1 to 25 uM measured after 24 hrs by crystal violet staining based transwell assay; type: functional; settings: dose 1-25 µM
[17] = target: T1, Programmed cell death protein 4 (Homo sapiens) (UniProt Q53EL6); assay: Inhibition of PDCD4 in human HeLa cells tranfected with pCI-neo-luciferase-PDCD4 3'-UTR plasmid assessed as fold change in luciferase signal by measuring relative luciferase unit by luciferase reporter assay; type: cell-based
T1 sequence (whole entry): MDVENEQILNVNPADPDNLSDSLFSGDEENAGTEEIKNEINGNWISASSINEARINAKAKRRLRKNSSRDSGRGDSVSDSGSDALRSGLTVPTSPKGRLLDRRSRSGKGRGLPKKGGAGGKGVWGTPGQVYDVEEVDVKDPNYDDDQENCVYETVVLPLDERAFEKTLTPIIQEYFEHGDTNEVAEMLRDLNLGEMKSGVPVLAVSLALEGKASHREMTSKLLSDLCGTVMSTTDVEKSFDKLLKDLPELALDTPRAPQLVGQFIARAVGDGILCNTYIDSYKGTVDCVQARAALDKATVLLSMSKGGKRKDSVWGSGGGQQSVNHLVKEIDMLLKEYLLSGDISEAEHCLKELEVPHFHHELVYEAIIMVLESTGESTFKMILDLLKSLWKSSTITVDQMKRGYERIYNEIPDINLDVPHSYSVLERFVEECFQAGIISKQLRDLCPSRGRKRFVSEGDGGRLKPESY

HeLa [18] = assay: Upregulation of pri-miR-214 in human HeLa cells at 10 uM incubated for 6 hrs by qRT-PCR analysis; type: functional, cell-based
Homo sapiens = organism: Homo sapiens; assay: Effect on PACT-Dicer interaction (unknown origin) assessed as increase in binding of PACT to Dicer at 1 to 25 uM by Western blotting analysis; settings: dose 1-25 µM
HepG2 [19] = assay: Upregulation of pre-miR-221 in human HepG2 cells at 10 uM incubated for 6 hrs by qRT-PCR analysis; type: functional, cell-based
HeLa [20] = assay: Upregulation of pri-miR-155 in human HeLa cells at 10 uM incubated for 6 hrs by qRT-PCR analysis; type: functional, cell-based
HepG2 [21] = assay: Downregulation of miR-122 expression in human HepG2 cells at 10 uM incubated for 6 hrs by qRT-PCR analysis; type: functional
[22] = Toxicity in SCID mouse xenografted with human MHCC97-L cells assessed as effect on lung at 10 to 50 mg/kg, ip administered every 2 days for 4 weeks by hematoxyin-eosin staining based analysis; type: organism-based; settings: in vivo, 672 h, dose 10-50 mg/kg
HCCLM3 [23] = assay: Inhibition of cell migration in human HCLLM3 cells at 1 to 25 uM measured after 24 hrs by crystal violet staining based transwell assay; type: functional; settings: dose 1-25 µM
HepG2 [24] = assay: Downregulation of miR-221 expression in human HepG2 cells at 10 uM incubated for 6 hrs by qRT-PCR analysis; type: functional
SK-HEP1 [25] = assay: Inhibition of cell migration in human SK-HEP1 cells assessed as reduction of cell mobility at 1 to 25 uM measured at 24 hrs by well scratch method; type: functional, cell-based; settings: dose 1-25 µM
MHCC97-L [26] = assay: Upregulation of let-7 expression in human MHCC97-L cells at 10 uM by qRT-PCR analysis; type: functional, cell-based
SK-HEP1 [27] = assay: Upregulation of miR-125 expression in human SK-HEP1 cells at 10 uM by qRT-PCR analysis; type: functional, cell-based
SK-HEP1 [28] = assay: Downregulation of fibronectin expression in human SK-HEP1 cells at 1 to 25 uM by Western blot analysis; type: functional, cell-based; settings: dose 1-25 µM
HeLa [29] = assay: Upregulation of pri-miR-21 in human HeLa cells at 10 uM incubated for 6 hrs by qRT-PCR analysis; type: functional, cell-based
HeLa [30] = assay: Upregulation of pre-miR-155 in human HeLa cells at 10 uM incubated for 6 hrs by qRT-PCR analysis; type: functional, cell-based
[31] = Acute toxicity in KM mouse assessed as effect on liver at 100 mg/kg, ip administered for 7 consecutive days by hematoxyin-eosin staining based analysis; type: organism-based; settings: in vivo, 168 h, time 7 day
MHCC97-L [32] = assay: Inhibition of cell migration in human MHCC97-L cells assessed as reduction of cell mobility at 1 to 25 uM measured at 24 hrs by well scratch method; type: functional, cell-based; settings: dose 1-25 µM
[33] = Acute toxicity in KM mouse assessed as effect on kidney at 100 mg/kg, ip administered for 7 consecutive days by hematoxyin-eosin staining based analysis; type: organism-based; settings: in vivo, 168 h, time 7 day
SK-HEP1 [34] = assay: Upregulation of PDCD4 protein expression in human SK-HEP1 cells incubated for 24 hrs by Western blotting analysis; type: functional, cell-based; settings: dose 1-50 µM, DDE = dose-dependent effect

CCOC(=O)c1nc(-c2ccc(OC)cc2)oc1C
Activity (HCCLM3 [1]): Active | Activity [2]: Non-Toxic | Activity (HeLa [3]): 60% | pEC50 [4]: 5.86 | Activity (HCCLM3 [5]): Active | Activity (SK-HEP1 [6]): Active | Activity (SK-HEP1 [7]): Active | Activity (SK-HEP1 [8]): Active | inhibition (MHCC97-L [9]): Active | Activity (MHCC97-L [10]): Active | Activity (SK-HEP1 [11]): Active | Activity [12]: Non-Toxic | Activity (SK-HEP1 [13]): Active | Activity (HepG2 [14]): 60% | Activity (SK-HEP1 [15]): Active | inhibition (HCCLM3 [16]): Active | RLU [17]: 2.13 | Activity (HeLa [18]): Active | Activity (Homo sapiens): Active | Activity (HepG2 [19]): Active | Activity (HeLa [20]): Active | Activity (HepG2 [21]): 60% | Activity [22]: Non-Toxic | inhibition (HCCLM3 [23]): Active | Activity (HepG2 [24]): 60% | inhibition (SK-HEP1 [25]): Active | Activity (MHCC97-L [26]): Active | Activity (SK-HEP1 [27]): Active | Activity (SK-HEP1 [28]): Active | Activity (HeLa [29]): Active | Activity (HeLa [30]): Active | Activity [31]: Non-Toxic | inhibition (MHCC97-L [32]): Active | Activity [33]: Non-Toxic | Activity (SK-HEP1 [34]): Dde
